Test results: BindingDB's records for doi:10.7270/Q2ZP450S (Catholic University of Daegu, 2017)

Target: T1, Tyrosine-protein phosphatase non-receptor type 1 (Homo sapiens, UniProt P18031)
T1 sequence (P18031 whole entry): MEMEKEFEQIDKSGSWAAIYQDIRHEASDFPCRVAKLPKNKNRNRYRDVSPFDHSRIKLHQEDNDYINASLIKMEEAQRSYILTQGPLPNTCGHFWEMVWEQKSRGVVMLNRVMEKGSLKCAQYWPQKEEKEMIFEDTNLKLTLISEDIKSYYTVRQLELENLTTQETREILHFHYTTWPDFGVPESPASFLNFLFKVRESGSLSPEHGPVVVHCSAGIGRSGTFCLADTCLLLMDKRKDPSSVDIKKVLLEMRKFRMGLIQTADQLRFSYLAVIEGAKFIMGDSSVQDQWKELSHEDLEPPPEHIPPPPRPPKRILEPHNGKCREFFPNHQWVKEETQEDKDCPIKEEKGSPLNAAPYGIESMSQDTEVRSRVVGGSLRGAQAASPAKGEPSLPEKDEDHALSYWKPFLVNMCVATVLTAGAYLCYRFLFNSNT
Experiment: PTP1B Assay
Conditions: pH 6; 37 °C
Protocol: In each 96-well plates (total 200 μL of volume), there were 2 mM p-NPP and PTP1B (0.05-0.1 μg) in a buffer containing 50 mM citrate (pH 6.0), 0.1 M NaCl, 1 mM EDTA, and 1 mM dithiothreitol (DTT) with or without test compound, following by pre-incubated at 37 °C for 10 min, and then implemented with 50 μL of p-NPP. The reaction was finally added with 10 M NaOH.

SMILES | IC50 | Ki
COc1ccc(-c2ccc(O)cc2)c(C(c2ccc(O)cc2)c2ccc(O)cc2)c1C#Cc1ccc(O)cc1 [PTP1B spring 7 (7)] | 4.8 µM | 3 µM
Cc1ccc(-c2ccc(O)cc2)c(C(=C2C=CC(=O)C=C2)c2ccc(O)cc2)c1C#Cc1ccc(O)cc1 [Selaginellin U (2)] | 13.8 µM | 9.7 µM
COc1cc(C#Cc2c(CO)ccc(-c3ccc(O)cc3)c2C(=C2C=CC(=O)C=C2)c2ccc(O)cc2)ccc1O [Selaginellin V (3)] | 14.5 µM | 11.3 µM
O=C1C=CC(=C(c2ccc(O)cc2)c2c(C#Cc3ccc(O)cc3)cccc2-c2ccc(O)cc2O)C=C1 [Selaginellin W (4)] | 14.6 µM | 11.1 µM
O=C1C=CC(=C(c2ccc(O)cc2)c2c(-c3ccc(O)cc3O)ccc(CO)c2C#Cc2ccc(O)cc2)C=C1 [PTP1B spring 5 (5)] | 15.9 µM | 13.9 µM
O=C1C=CC(=C(c2ccc(O)cc2)c2c(C#Cc3ccc(O)cc3)cccc2-c2ccc(O)cc2)C=C1 [Selaginellin T (1)] | 58 µM | 
